Assay results taken from US20260125375A1 (Pfizer Inc., priority 2022, published 2026).
Read-outs that look alike come from different tables or passages of the source.

What was measured:
[1] = molecular target: T1, CBL-B (residues 36-427) (Homo sapiens, UniProt Q13191); experiment: Ligand Displacement Assay (LDA), HTRF competitive binding against BODIPY-labeled fluorescent tracer, CBL-B; details: geometric mean of the number of tests, read-out: CBL-B Ki (nM) GMean
T1 construct: Purified CBL-B (residues 36-427) and C-CBL (residues 46-435) proteins from baculovirus-infected insect cells; made in house; host or cells: baculovirus-infected insect cells
Procedure, shortened: (§1)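 Insect-cell (baculovirus) protein, N-term AviTag biotinylated via BirA, captured by SA-Tb; BODIPY tracer, KD measured per protein. 3-fold serial dilutions, duplicate, […], 2% DMSO final. Ki (nM) = geomean of runs.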

[2] = molecular target: T2, C-CBL (residues 46-435) (Homo sapiens, UniProt P22681); experiment: Ligand Displacement Assay (LDA), HTRF competitive binding against BODIPY-labeled fluorescent tracer, C-CBL; details: geometric mean of the number of tests, read-out: C-CBL Ki (nM) GMean
T2 construct: Purified CBL-B (residues 36-427) and C-CBL (residues 46-435) proteins from baculovirus-infected insect cells; made in house; host or cells: baculovirus-infected insect cells
T2 sequence (P22681 46-435): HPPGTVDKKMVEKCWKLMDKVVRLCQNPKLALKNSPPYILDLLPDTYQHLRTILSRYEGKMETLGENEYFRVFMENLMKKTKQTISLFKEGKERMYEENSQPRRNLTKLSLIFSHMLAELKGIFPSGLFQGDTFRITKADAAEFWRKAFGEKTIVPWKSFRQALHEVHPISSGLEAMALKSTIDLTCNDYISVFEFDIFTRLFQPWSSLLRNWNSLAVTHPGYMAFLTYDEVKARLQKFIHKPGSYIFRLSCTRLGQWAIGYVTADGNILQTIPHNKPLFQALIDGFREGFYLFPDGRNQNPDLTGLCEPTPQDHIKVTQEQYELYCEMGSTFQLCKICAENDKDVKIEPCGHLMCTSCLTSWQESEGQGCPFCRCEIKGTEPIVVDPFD
Procedure, shortened: as §1

[3] = molecular target: T3, C-CBL (Homo sapiens, UniProt P22681); experiment: Jurkat HiBit-IL2 assay (CBL-B KO), reporter cell line expressing C-CBL only; format: cell-based; details: geometric mean, read-out: CBL-B KO EC50 (nM) GMean
T3 construct: endogenous in cells; host or cells: Jurkat HiBit-IL2 reporter cells, CBL-B knocked out by CRISPR
Procedure, shortened: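 IL-2 secretion was measured by HiBiT luminescence after 1 h compound exposure (0.1% DMSO) and 4 h TCR/CD28 stimulation (final anti-CD3 1 μg/ml, anti-CD28 2 μg/ml, 37 °C) of Jurkat reporters lacking c-CBL or CBL-B. EC50 came from fold-of-effect versus stimulated-only cells, as geometric means across tests.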

[4] = CBL-B KO (C-CBL only), anti-CD3/anti-CD28 stimulation 4 hours, Table 16a
[5] = CBL-B KO (expressing C-CBL only), Table 16b (further repetition)

| Structure (SMILES) | Ki [1] | Ki [2] | EC50 [3, 4] | EC50 [3, 5] |
| --- | --- | --- | --- | --- |
| CC(c1nc(C(F)(F)F)cc2c(-c3cccc(C4(Cc5nncn5C)COC4)c3)n[nH]c12)N1CCCCC1 (single isomer, unassigned) [Example C22, 3-(3-{3-[(4-methyl-4H-1,2,4-triazol-3-yl)methyl]oxetan-3-yl}phenyl)-7-[(1ξ)-1-(piperidin-1-yl)ethyl]-5-(trifluoromethyl)-1H-pyrazolo[3,4-c]pyridine] | 24.1 nM | 133 nM | 942 nM |  |
| C[C@H](N[C@@H]1CC[C@@H]1O)c1nc(C(F)(F)F)cc2c(-c3cccc([C@H](c4nncn4C)C4CCC4)c3)n[nH]c12 (single isomer, unassigned) [Example D28] | 0.7 nM | 0.6 nM | 4 nM |  |
| C[C@H](c1nc(C(F)(F)F)cc2c(-c3cccc(C4(Cc5nncn5C)COC4)c3)n[nH]c12)N1CC[C@@H](F)C1 (single isomer, unassigned) [Example D10] | 6.6 nM | 25 nM | 595 nM |  |
| C[C@H](NC1CCCC1)c1nc(C(F)(F)F)cc2c(-c3cccc([C@H](c4nncn4C)C4CCC4)c3)n[nH]c12 (single isomer, unassigned) [Example C10] | 11.4 nM | 108 nM | > 2310 nM |  |
| CC(c1nc(C(F)(F)F)cc2c(-c3cccc(C4(Cc5nncn5C)COC4)c3)n[nH]c12)N1CCOCC1 (single isomer, unassigned) [Example C23, 3-(3-{3-[(4-methyl-4H-1,2,4-triazol-3-yl)methyl]oxetan-3-yl}phenyl)-7-[(1ξ)-1-(morpholin-4-yl)ethyl]-5-(trifluoromethyl)-1H-pyrazolo[3,4-c]pyridine] | 5.7 nM | 24.8 nM | 800 nM |  |
| CC(c1nc(C(F)(F)F)cc2c(-c3cccc(C4(Cc5nncn5C)COC4)c3)n[nH]c12)N1CCC[C@H](C)C1 (single isomer, unassigned) [Example C19] | 10.8 nM | 61.3 nM | 439 nM |  |
| C[C@H](c1nc(C(F)(F)F)cc2c(-c3cccc(C4(Cc5nncn5C)COC4)c3)n[nH]c12)N1C[C@H](F)[C@@H](F)C1 (single isomer, unassigned) [Example D8] | 25.4 nM | 113 nM | 1210 nM |  |
| CC(NC1CNC1)c1nc(C(F)(F)F)cc2c(-c3cccc(C4(Cc5nncn5C)COC4)c3)n[nH]c12 (single isomer, unassigned) [Example C27, N-{(1ξ)-1-[3-(3-{3-[(4-methyl-4H-1,2,4-triazol-3-yl)methyl]oxetan-3-yl}phenyl)-5-(trifluoromethyl)-1H-pyrazolo[3,4-c]pyridin-7-yl]ethyl}azetidin-3-amine] | 31.4 nM | 76 nM | > 4300 nM |  |
| C[C@H](N[C@@H]1CCOC1)c1nc(C(F)(F)F)cc2c(-c3cccc([C@H](c4nncn4C)C4CCC4)c3)n[nH]c12 (single isomer, unassigned) [Example D2] | 5.8 nM | 77.1 nM | 465 nM | 425 nM |
| C[C@@H](NC1CC(F)(F)C1)c1nc(C(F)(F)F)cc2c(-c3cccc([C@H](c4nncn4C)C4CCC4)c3)n[nH]c12 (single isomer, unassigned) [Example D91] | 6.2 nM | 66.8 nM |  | 238 nM |
| Cn1cnnc1[C@@H](c1cccc(-c2n[nH]c3cnc(C(F)(F)F)cc23)c1)C1CCC1 [Example A1, 3-{3-[(R)-cyclobutyl(4-methyl-4H-1,2,4-triazol-3-yl)methyl]phenyl}-5-(trifluoromethyl)-1H-pyrazolo[3,4-c]pyridine] | 74.4 nM | 681 nM | > 5280 nM | 4500 nM |
| C[C@@H]1CCCN(Cc2nc(C(F)(F)F)cc3c(-c4cccc(C5(Cc6nncn6C)COC5)c4)n[nH]c23)C1 [Example C29, 7-{[(3R)-3-methylpiperidin-1-yl]methyl}-3-(3-{3-[(4-methyl-4H-1,2,4-triazol-3-yl)methyl]oxetan-3-yl}phenyl)-5-(trifluoromethyl)-1H-pyrazolo[3,4-c]pyridine] | 8.5 nM | 46.3 nM | 1320 nM |  |
| C[C@H](N[C@H]1C[C@@H](O)C1)c1nc(C(F)(F)F)cc2c(-c3cccc([C@H](c4nncn4C)C4CCC4)c3)n[nH]c12 (single isomer, unassigned) [Example C36] | 1.8 nM | 16.8 nM | 173 nM | 160 nM |
| C[C@H](N[C@H]1CCC[C@@H]1O)c1nc(C(F)(F)F)cc2c(-c3cccc([C@H](c4nncn4C)C4CCC4)c3)n[nH]c12 (single isomer, unassigned) [Example C47] | 0.7 nM | 5 nM | 105 nM | 76 nM |
| C[C@H](N)c1nc(C(F)(F)F)cc2c(-c3cccc([C@H](c4nncn4C)C4CCC4)c3)n[nH]c12 [Example K12, (1S)-1-[3-{3-[(R)-cyclobutyl(4-methyl-4H-1,2,4-triazol-3-yl)methyl]phenyl}-5-(trifluoromethyl)-1H-pyrazolo[3,4-c]pyridin-7-yl]ethan-1-amine] | 19.3 nM | 136 nM |  | 2080 nM |
| C[C@H](N[C@H]1CCC(F)(F)C1)c1nc(C(F)(F)F)cc2c(-c3cccc(C4(Cc5nncn5C)COC4)c3)n[nH]c12 (single isomer, unassigned) [Example C12] | 0.9 nM | 1.3 nM | 25 nM | 16 nM |
| CC1CN(Cc2nc(C(F)(F)F)cc3c(-c4cccc(C5(Cc6nncn6C)COC5)c4)n[nH]c23)CCC1(F)F (single isomer, unassigned) [Example C32, 7-{[(3ξ)-4,4-difluoro-3-methylpiperidin-1-yl]methyl}-3-(3-{3-[(4-methyl-4H-1,2,4-triazol-3-yl)methyl]oxetan-3-yl}phenyl)-5-(trifluoromethyl)-1H-pyrazolo[3,4-c]pyridine] | 6.7 nM | 55.6 nM | 1190 nM | 110 nM |
| C[C@@H](N[C@@H]1CCC(F)(F)C1)c1nc(C(F)(F)F)cc2c(-c3cccc(C4(Cc5nncn5C)COC4)c3)n[nH]c12 (single isomer, unassigned) [Example C18] | 2.2 nM | 15.1 nM | 178 nM | 49 nM |
| Cn1cnnc1[C@@H](c1cccc(-c2n[nH]c3c(CN[C@H]4CCC[C@@H]4O)nc(C(F)(F)F)cc23)c1)C1CCC1 [Example C4, (1S,2S)-2-({[3-{3-[(R)-cyclobutyl(4-methyl-4H-1,2,4-triazol-3-yl)methyl]phenyl}-5-(trifluoromethyl)-1H-pyrazolo[3,4-c]pyridin-7-yl]methyl}amino)cyclopentan-1-ol] | 3.3 nM | 47.4 nM | 1050 nM |  |
| CC(NC1CNC1)c1nc(C(F)(F)F)cc2c(-c3cccc(C4(Cc5nncn5C)COC4)c3)n[nH]c12 (single isomer, unassigned) [Example C28, N-{(1ξ)-1-[3-(3-{3-[(4-methyl-4H-1,2,4-triazol-3-yl)methyl]oxetan-3-yl}phenyl)-5-(trifluoromethyl)-1H-pyrazolo[3,4-c]pyridin-7-yl]ethyl}azetidin-3-amine] | 33.4 nM | 114 nM | > 5190 nM |  |
